# Reference: US7947719B2, “Biologically active compounds obtainable from Sorangium cellulosum” (Hemholtz-Zentrum fur Infektionsforschung GmbH, priority 2005, dated 2011)
# Key:
# Format in all cases: cell-based
# [1] = system: Botrytis cinerea; assay: Minimal inhibitory concentration against micro-organisms
# Text: (§1) As an example for compounds according to the invention, Disorazole Z has been analyzed for biological activity following the methods as disclosed in Irschik et al. (The Sorangicins, novel and powerful inhibitors of eubacterial RNA polymerase isolated from myxobacteria, J. Antibiotics 40: 7-13 (1987)). The following minimal inhibitory concentrations against organisms were found: […]
# [2] = system: Escherichia coli (DMSZ 5347); assay: as above
# Text: as §1
# [3] = system: Mucor hiemalis; assay: as above
# Text: as §1
# [4] = system: Pythium debaryanum; assay: as above; conditions: Globisporangium debaryanum
# Text: as §1
# [5] = system: Rhodotorula glutinis; assay: as above
# Text: as §1
# [6] = system: Saccharomyces cerevisiae; assay: as above
# Text: as §1
# [7] = system: Staphylococcus aureus; assay: as above
# Text: as §1
# [8] = system: mouse fibroblast cell line L929 (ATCC CCL 1); assay: Toxicity against mouse fibroblast cell line L929; conditions: L929 (ATCC CCL 1) mouse fibroblasts; read-out: inhibitory concentration IC50 (toxicity)
# Protocol: The toxicity tested against the mouse fibroblast cell line L929 (ATCC CCL 1) according to Sasse et al. (J. Antibiotics 56:827-831 (2003)), an inhibitory concentration IC50 of 30 pg/mL was determined.
compound,measurement,setting,value
C/C=C/C(O)C(C)(C(=O)OC)C1C\C=C/C=C/C=C/c2nc(co2)C(=O)OC(C(C)(C(=O)OC)C(O)/C=C/C)C\C=C/C=C/C=C/c2nc(co2)C(=O)O1 (centres unmarked) [Disorazole Z],MIC,[1],6 µg/mL
same,MIC,[2],> 25 µg/mL
same,MIC,[3],> 6 µg/mL
same,MIC,[4],3 µg/mL
same,MIC,[5],3 µg/mL
same,MIC,[6],> 6 µg/mL
same,MIC,[7],> 25 µg/mL
same,IC50,[8],0.03 ng/mL
